Reference: ChEMBL document CHEMBL5244235, “Diarylpentanoids with antitumor activity: A critical review of structure-activity relationship studies” (Eur J Med Chem, 2020)
Blank lines part the entries; values can stand above or below the compound they belong to.

How the values were obtained:
[1] = system: NCI-H460; test: Antiproliferative activity against human NCI-H460 cells assessed as cell growth inhibition measured after 24 hrs by MTT assay; type: functional, cell-based; conditions: NCI-H460, 24 h
[2] = system: A549; test: Antiproliferative activity against human A549 cells assessed as cell growth inhibition measured after 24 hrs by MTT assay; type: functional, cell-based; conditions: A549, 24 h
[3] = system: A2780; test: Antiproliferative activity against human A2780 cells assessed as cell viability at 10 uM measured after 24 hrs by MTT assay relative to control; type: functional; conditions: read-out: Activity
[4] = Antiproliferative activity against human KATO III stomach cancer cell line assessed as cell growth inhibition by MTT assay; type: functional, cell-based
[5] = system: GCIY; test: Antiproliferative activity against human GCIY cells assessed as cell growth inhibition by MTT assay; type: functional, cell-based
[6] = system: LS174T; test: Antiproliferative activity against human LS174T cells assessed as cell growth inhibition by MTT assay; type: functional, cell-based
[7] = Antiproliferative activity against human SH-10-TC cells assessed as cell growth inhibition by MTT assay; type: functional, cell-based
[8] = Antiproliferative activity against human H-111-TC cells assessed as cell growth inhibition by MTT assay; type: functional, cell-based
[9] = system: HeLa; test: Antiproliferative activity against human HeLa cells assessed as cell growth inhibition measured after 72 hrs by MTT assay; type: functional, cell-based; conditions: Homo sapiens, HeLa, 72 h
[10] = system: Ca-Ski; test: Antiproliferative activity against human Ca-Ski cells assessed as cell growth inhibition measured after 72 hrs by MTT assay; type: functional, cell-based
[11] = system: HUVEC; test: Anti-angiogenesis activity in HUVEC cells; type: functional, cell-based; conditions: Homo sapiens
[12] = system: MDA-MB-231; test: Growth inhibition of human MDA-MB-231 cells measured after 72 hrs by microplate reader analysis; type: functional
[13] = system: RPMI-7951; test: Growth inhibition of human RPMI-7951 cells measured after 72 hrs by microplate reader analysis; type: functional, cell-based; conditions: RPMI-7951, time 72 hrs
[14] = Cytotoxicity against HUVEC cells assessed as cell growth inhibition by anti-angiogenisis screening assay; type: toxicity, cell-based; conditions: human
[15] = Cytotoxicity against mouse MS-1 cells assessed as cell growth inhibition by anti-angiogenisis screening assay; type: toxicity, cell-based
[16] = Cytotoxicity against mouse SVR cells assessed as cell growth inhibition by anti-angiogenisis screening assay; type: toxicity, cell-based
[17] = system: A549; test: Anticancer activity against human A549 cells assessed as cell growth inhibition; type: functional
[18] = system: NCI-H460; test: Anticancer activity against human NCI-H460 cells assessed as cell growth inhibition; type: functional
[19] = system: Jurkat E6.1; test: Antiproliferative activity against human Jurkat E6.1 cells assessed as cell viability by WST-1 assay; type: functional, cell-based
[20] = system: U-937; test: Antiproliferative activity against human U-937 cells assessed as cell viability by WST-1 assay; type: functional, cell-based
[21] = system: SAOS-2; test: Antiproliferative activity against human SAOS-2 cells assessed as cell viability by WST-1 assay; type: functional, cell-based
[22] = system: HCT-116; test: Antiproliferative activity against human HCT-116 cells assessed as cell viability by WST-1 assay; type: functional, cell-based
[23] = system: HCT-116; test: Antiproliferative activity against human HCT-116 cells assessed as cell viability measured after 24 hrs by XTT assay; type: functional, cell-based; conditions: HCT-116, 24 h
[24] = system: HT-29; test: Antiproliferative activity against human HT-29 cells assessed as cell viability measured after 24 hrs by XTT assay; type: functional, cell-based; conditions: HT-29, 24 h
[25] = system: A549; test: Antiproliferative activity against human A549 cells assessed as cell growth inhibition measured after 48 hrs by MTT assay; type: functional, cell-based; conditions: A549, 48 h
[26] = system: NCI-H460; test: Antiproliferative activity against human NCI-H460 cells assessed as cell growth inhibition measured after 48 hrs by MTT assay; type: functional, cell-based; conditions: NCI-H460, 48 h
[27] = system: RPMI-7951; test: Antiproliferative activity against human RPMI-7951 cells assessed as cell growth inhibition measured after 72 hrs by neutral red assay; type: functional
[28] = system: MDA-MB-231; test: Antiproliferative activity against human MDA-MB-231 cells assessed as cell growth inhibition measured after 72 hrs by neutral red assay; type: functional
[29] = system: NSCLC; test: Antiproliferative activity against human NSCLC cells assessed as cell growth inhibition measured after 72 hrs by neutral red assay; type: functional
[30] = system: Panel CNS (Carcinoma cell lines); test: Antiproliferative activity against human Panel CNS (Carcinoma cell lines) assessed as cell growth inhibition measured after 72 hrs by neutral red assay; type: functional
[31] = system: Panel leukemia (Carcinoma cell lines); test: Antiproliferative activity against human Panel leukemia (Carcinoma cell lines) assessed as cell growth inhibition measured after 72 hrs by neutral red assay; type: functional
[32] = system: Panel colon (Carcinoma cell lines); test: Antiproliferative activity against human Panel colon (Carcinoma cell lines) assessed as cell growth inhibition measured after 72 hrs by neutral red assay; type: functional
[33] = system: Panel melanoma (Carcinoma cell lines); test: Antiproliferative activity against human Panel melanoma (Carcinoma cell lines) assessed as cell growth inhibition measured after 72 hrs by neutral red assay; type: functional
[34] = system: Panel ovarian (Carcinoma cell lines); test: Antiproliferative activity against human Panel ovarian (Carcinoma cell lines) assessed as cell growth inhibition measured after 72 hrs by neutral red assay; type: functional
[35] = system: Panel renal (Carcinoma cell lines); test: Antiproliferative activity against human Panel renal (Carcinoma cell lines) assessed as cell growth inhibition measured after 72 hrs by neutral red assay; type: functional
[36] = system: Panel prostate (Carcinoma cell lines); test: Antiproliferative activity against human Panel prostate (Carcinoma cell lines) assessed as cell growth inhibition measured after 72 hrs by neutral red assay; type: functional
[37] = system: Panel breast (Carcinoma cell lines); test: Antiproliferative activity against human Panel breast (Carcinoma cell lines) assessed as cell growth inhibition measured after 72 hrs by neutral red assay; type: functional
[38] = system: SVR; test: Anti-angiogenesis activity in mouse SVR cells assessed as cell growth inhibition; type: functional, cell-based
[39] = Anti-angiogenesis activity in […] MS-1 cells assessed as cell growth inhibition; type: functional, cell-based
[40] = system: HUVEC; test: Anti-angiogenesis activity in HUVEC cells assessed as cell growth inhibition; type: functional, cell-based; conditions: Homo sapiens

- IC50 [1]: 5300 nM
- IC50 [2]: 32500 nM
Structure (SMILES): COc1cc(/C=C/C(=O)CC(=O)/C=C/c2ccc(O)c(OC)c2)ccc1O [CURCUMIN]

Structure (SMILES): CC1(C)C=C(CN2C/C(=C\c3ccc(F)cc3)C(=O)/C(=C/c3ccc(F)cc3)C2)C(C)(C)N1O
- viability at 10 µM [3]: 20%

- EC50 [9]: 1030 nM
Structure (SMILES): COc1cc(/C=C/C(=O)/C=C/c2ccc(O)c(OC)c2)ccc1O
- IC50 [4]: 5980 nM
- IC50 [5]: 7320 nM
- IC50 [6]: 3700 nM
- IC50 [7]: 3280 nM
- IC50 [8]: 3670 nM
- EC50 [10]: 1030 nM
- IC50 [11]: 400 nM

- GI50 [12]: 1000 nM
- GI50 [17]: 17000 nM
- GI50 [18]: 11300 nM
Structure (SMILES): O=C(/C=C/c1ccccc1F)/C=C/c1ccccc1F
- GI50 [13]: 2300 nM
- GI50 [14]: 6100 nM
- GI50 [15]: 6100 nM
- GI50 [16]: 6100 nM

- IC50 [19]: 1450 nM
- IC50 [20]: 1450 nM
- IC50 [22]: 1450 nM
Structure (SMILES): O=C1/C(=C/c2ccc(O)c(O)c2)COC/C1=C\c1ccc(O)c(O)c1
- IC50 [21]: 1450 nM

- IC50 [23]: 620 nM
- IC50 [24]: 620 nM
Structure (SMILES): CN1C/C(=C\c2ccccn2)C(=O)/C(=C/c2ccccn2)C1

- IC50 [25]: 30500 nM
- IC50 [26]: 28700 nM
Structure (SMILES): O=C1/C(=C/c2ccccc2F)CCC/C1=C\c1ccccc1F

- GI50 [28]: 1600 nM
- GI50 [30]: 1600 nM
- GI50 [31]: 1600 nM
- GI50 [32]: 1600 nM
- GI50 [33]: 1600 nM
- GI50 [34]: 1600 nM
- GI50 [35]: 1600 nM
- GI50 [36]: 1600 nM
- GI50 [37]: 1600 nM
Structure (SMILES): O=C1/C(=C/c2ccccc2O)CCC/C1=C\c1ccccc1O
- GI50 [27]: 1600 nM
- GI50 [29]: 1600 nM
- GI50 [38]: 2000 nM
- GI50 [39]: 2000 nM
- GI50 [40]: 2000 nM
